The values below come from ChEMBL document CHEMBL1201862, “PubChem BioAssay data set” (2004).

For assay [1], the target named is Disintegrin and metalloproteinase domain-containing protein 17 (Homo sapiens, UniProt P78536). In words: inhibition of ADAM17 substrate cleavage – biochemical, quenched FRET substrate, counter-screen for ADAM10 exosite inhibitor project, dose response (AID 743253). (The purpose of a counterscreen is to sort out artefacts and off-target activity.)
A short description of assay [2]: potency of ADAM10 substrate cleavage blockers – biochemical, QFRET, dose response (AID 743254).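 Also: ADAM10 enzyme with the DM2 quenched FRET peptide as substrate; EDANS fluorescence gain as the protease cuts the substrate; inhibitor potency against ADAM10 proteolytic activity.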
The target of a further assay is Paired box protein Pax-8 (Homo sapiens, UniProt Q06710). Description: PAX8 transcriptional activity inhibition in RMG-I – RMG-I cells, luciferase, cherry-pick, dose response (AID 687027).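 Also: luciferase reporter driven by Pax8 target thyroperoxidase promoter measured by SteadyGlo luminescence.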 The assay is classed as functional, cell-based.
Chain of Paired box protein Pax-8 (Q06710 whole entry): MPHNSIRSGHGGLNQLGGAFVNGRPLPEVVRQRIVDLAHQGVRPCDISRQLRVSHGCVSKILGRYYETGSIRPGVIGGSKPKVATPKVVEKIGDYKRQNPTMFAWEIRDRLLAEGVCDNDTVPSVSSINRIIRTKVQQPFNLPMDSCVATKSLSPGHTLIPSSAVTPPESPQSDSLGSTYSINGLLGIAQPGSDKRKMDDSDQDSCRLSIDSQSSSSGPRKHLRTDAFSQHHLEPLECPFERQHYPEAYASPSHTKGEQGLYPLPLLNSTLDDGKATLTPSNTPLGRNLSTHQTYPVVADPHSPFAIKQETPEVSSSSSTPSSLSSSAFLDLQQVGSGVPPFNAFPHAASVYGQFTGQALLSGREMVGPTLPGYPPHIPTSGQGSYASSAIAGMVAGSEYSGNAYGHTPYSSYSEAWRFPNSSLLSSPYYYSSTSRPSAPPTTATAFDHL
For assay [3], the target named is T1, 1-phosphatidylinositol 4,5-bisphosphate phosphodiesterase beta-3 (Homo sapiens, UniProt Q01970).
T1 sequence (Q01970 whole entry): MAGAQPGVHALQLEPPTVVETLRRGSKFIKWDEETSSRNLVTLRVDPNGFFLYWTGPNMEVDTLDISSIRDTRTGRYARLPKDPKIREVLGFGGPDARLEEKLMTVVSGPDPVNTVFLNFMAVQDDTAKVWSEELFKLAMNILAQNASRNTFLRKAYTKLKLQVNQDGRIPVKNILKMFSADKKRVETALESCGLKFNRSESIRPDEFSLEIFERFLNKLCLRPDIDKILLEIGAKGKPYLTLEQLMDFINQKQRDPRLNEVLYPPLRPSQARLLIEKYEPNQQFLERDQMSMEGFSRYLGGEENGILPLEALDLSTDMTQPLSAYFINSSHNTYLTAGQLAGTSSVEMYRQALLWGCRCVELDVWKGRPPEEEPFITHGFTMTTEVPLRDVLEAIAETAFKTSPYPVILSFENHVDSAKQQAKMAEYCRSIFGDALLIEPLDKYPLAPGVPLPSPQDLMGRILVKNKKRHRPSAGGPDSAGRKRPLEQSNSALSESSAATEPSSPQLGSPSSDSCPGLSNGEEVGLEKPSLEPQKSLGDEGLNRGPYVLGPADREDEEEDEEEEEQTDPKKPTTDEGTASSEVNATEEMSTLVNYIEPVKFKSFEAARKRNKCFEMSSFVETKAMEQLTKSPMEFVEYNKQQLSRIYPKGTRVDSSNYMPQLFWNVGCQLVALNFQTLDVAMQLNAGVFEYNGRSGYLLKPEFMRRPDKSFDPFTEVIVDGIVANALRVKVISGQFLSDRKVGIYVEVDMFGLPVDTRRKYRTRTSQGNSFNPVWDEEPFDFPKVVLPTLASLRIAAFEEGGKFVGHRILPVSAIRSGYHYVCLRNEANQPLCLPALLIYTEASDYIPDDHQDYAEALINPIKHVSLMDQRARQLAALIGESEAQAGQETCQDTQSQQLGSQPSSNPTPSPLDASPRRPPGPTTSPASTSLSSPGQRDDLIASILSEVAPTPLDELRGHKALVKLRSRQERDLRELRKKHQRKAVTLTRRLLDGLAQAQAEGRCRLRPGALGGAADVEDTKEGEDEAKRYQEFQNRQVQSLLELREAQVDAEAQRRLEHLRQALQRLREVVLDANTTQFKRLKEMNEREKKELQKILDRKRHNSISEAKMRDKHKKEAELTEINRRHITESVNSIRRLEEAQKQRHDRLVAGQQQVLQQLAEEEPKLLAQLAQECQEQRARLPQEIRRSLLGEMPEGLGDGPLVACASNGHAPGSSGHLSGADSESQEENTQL
In words: Fluorescence-based biochemical high throughput dose response assay to identify inhibitors of phospholipase C isozymes (PLC-B3).

Assay [4] addresses T2, 1-phosphatidylinositol 4,5-bisphosphate phosphodiesterase gamma-1 (Homo sapiens, UniProt P19174).
T2 sequence (P19174 whole entry): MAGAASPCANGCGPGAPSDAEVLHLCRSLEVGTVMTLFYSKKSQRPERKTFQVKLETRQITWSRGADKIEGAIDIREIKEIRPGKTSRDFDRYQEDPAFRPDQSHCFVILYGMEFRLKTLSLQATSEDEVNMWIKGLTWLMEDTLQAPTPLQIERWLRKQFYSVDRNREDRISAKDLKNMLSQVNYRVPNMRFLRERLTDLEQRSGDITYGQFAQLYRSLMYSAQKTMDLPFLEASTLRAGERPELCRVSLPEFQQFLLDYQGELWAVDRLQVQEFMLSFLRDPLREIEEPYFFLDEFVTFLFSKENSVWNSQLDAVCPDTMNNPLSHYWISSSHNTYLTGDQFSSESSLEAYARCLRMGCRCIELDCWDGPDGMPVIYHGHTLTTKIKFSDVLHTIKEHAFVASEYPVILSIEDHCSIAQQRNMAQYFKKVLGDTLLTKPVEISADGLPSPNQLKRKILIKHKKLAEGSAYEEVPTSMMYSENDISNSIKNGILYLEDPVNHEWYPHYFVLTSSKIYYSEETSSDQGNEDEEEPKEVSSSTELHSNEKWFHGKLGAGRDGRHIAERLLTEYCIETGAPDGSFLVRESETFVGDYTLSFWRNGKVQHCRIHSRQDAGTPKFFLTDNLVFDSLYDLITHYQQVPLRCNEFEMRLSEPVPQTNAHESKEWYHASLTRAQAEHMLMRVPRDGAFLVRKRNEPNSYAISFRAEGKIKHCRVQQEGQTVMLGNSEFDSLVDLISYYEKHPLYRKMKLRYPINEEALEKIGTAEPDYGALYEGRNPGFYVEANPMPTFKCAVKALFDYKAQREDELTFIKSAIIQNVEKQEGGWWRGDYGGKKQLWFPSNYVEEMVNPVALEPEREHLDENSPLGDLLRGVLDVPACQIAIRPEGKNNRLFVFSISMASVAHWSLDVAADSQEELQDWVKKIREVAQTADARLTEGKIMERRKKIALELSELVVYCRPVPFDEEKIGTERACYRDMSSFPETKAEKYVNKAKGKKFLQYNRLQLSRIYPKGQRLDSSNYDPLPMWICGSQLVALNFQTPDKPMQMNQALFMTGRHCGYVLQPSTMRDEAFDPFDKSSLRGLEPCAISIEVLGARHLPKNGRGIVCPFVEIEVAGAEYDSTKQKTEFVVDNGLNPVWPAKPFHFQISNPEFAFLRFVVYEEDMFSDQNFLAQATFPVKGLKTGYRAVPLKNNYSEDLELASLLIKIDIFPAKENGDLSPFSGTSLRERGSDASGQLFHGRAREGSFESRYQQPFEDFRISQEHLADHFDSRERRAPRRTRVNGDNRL
In words: Counterscreen for inhibitors of phospholipase C isozymes (PLC-B3): Fluorescence-based biochemical high throughput dose response assay to identify inhibitors of phospholipase C isozymes (PLC-gamma1).

A short description of assay [5]: NIH-3T3 fibroblast cytotoxicity, dose response, cytotoxicity control, cell-based, fluorescence, Alamar Blue, secondary assay (AID 2327).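 Also: NIH-3T3 mouse fibroblasts cultured with fluconazole at 8 µg/mL.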 It counts as functional.
Assay [6] is described as follows: alpha-synuclein stem-loop luciferase translation blockers – H4 neuroglioma cells, luminescence, confirmation (AID 1988). It counts as functional, cell-based.
Assay [7] can be described thus: Luminescence Cell-Based Dose Response HTS to Identify Inhibitors of 5'UTR Stem-Loop Driven Prion Protein mRNA Translation in H4 Neuroglioblastoma Cells. [Related pubchem assays: 1827 (Project Summary), 1813 (Primary HTS)]. The assay is classed as functional.
Assay [8] can be described thus: fluconazole-exposed Candida albicans growth modulators – fluorescence, retest, confirmation (AID 2467). The assay is classed as functional, cell-based.
In a further assay the test system is INS1. In words: INS-1E survival protection against cytokine death – cell-based, luminescence, retest, dose response (AID 449756).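 Also: cell death triggered by IL-1 beta plus TNF-alpha plus IFN-gamma mixture; protective hits raise ATP signal compared with cytokine alone wells.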 It counts as functional. Conditions: Rattus norvegicus.
A short description of assay [9]: luciferase reporter signal suppression in cells – H4 neuroglioma cells, luminescence, dose response (AID 1990). The assay is classed as functional, cell-based. For orientation: In a reporter assay the amount or activity of a reporter protein is the signal.
The target of assay [10] is Heat shock protein HSP 90-alpha (Homo sapiens, UniProt P07900). It counts as functional, organism-based.
The target of assay [11] is Peroxisome proliferator-activated receptor gamma/Nuclear receptor coactivator 1 (Homo sapiens, UniProt P37231). Description: TR-FRET dose response biochemical High Throughput Screening assay for agonists of the steroid receptor coactivator 1 (SRC-1) recruitment by the peroxisome proliferator-activated receptor gamma (PPAR gamma): non-selective agonists. [Related pubchem assays (depositor defined):AID1300, AID1808, AID504735, AID631]. The assay is classed as protein assay. Background: In TR-FRET formats the signal depends on donor and acceptor labels being close together.
Chain of Peroxisome proliferator-activated receptor gamma/Nuclear receptor coactivator 1 (P37231 whole entry): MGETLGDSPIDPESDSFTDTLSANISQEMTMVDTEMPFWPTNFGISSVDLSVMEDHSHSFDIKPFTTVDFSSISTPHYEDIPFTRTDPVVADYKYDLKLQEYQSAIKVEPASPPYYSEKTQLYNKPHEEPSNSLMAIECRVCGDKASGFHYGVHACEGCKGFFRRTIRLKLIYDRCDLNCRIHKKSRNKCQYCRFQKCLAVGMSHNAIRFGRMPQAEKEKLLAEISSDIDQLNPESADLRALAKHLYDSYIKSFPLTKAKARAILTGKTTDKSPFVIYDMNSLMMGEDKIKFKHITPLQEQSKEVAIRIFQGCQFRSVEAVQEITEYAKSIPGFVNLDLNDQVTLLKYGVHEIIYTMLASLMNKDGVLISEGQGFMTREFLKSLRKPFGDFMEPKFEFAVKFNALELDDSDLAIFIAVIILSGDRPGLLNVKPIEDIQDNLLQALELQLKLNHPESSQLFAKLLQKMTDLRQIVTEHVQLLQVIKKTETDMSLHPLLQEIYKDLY
Chain of Peroxisome proliferator-activated receptor gamma/Nuclear receptor coactivator 1 (Q15788 whole entry, further chain): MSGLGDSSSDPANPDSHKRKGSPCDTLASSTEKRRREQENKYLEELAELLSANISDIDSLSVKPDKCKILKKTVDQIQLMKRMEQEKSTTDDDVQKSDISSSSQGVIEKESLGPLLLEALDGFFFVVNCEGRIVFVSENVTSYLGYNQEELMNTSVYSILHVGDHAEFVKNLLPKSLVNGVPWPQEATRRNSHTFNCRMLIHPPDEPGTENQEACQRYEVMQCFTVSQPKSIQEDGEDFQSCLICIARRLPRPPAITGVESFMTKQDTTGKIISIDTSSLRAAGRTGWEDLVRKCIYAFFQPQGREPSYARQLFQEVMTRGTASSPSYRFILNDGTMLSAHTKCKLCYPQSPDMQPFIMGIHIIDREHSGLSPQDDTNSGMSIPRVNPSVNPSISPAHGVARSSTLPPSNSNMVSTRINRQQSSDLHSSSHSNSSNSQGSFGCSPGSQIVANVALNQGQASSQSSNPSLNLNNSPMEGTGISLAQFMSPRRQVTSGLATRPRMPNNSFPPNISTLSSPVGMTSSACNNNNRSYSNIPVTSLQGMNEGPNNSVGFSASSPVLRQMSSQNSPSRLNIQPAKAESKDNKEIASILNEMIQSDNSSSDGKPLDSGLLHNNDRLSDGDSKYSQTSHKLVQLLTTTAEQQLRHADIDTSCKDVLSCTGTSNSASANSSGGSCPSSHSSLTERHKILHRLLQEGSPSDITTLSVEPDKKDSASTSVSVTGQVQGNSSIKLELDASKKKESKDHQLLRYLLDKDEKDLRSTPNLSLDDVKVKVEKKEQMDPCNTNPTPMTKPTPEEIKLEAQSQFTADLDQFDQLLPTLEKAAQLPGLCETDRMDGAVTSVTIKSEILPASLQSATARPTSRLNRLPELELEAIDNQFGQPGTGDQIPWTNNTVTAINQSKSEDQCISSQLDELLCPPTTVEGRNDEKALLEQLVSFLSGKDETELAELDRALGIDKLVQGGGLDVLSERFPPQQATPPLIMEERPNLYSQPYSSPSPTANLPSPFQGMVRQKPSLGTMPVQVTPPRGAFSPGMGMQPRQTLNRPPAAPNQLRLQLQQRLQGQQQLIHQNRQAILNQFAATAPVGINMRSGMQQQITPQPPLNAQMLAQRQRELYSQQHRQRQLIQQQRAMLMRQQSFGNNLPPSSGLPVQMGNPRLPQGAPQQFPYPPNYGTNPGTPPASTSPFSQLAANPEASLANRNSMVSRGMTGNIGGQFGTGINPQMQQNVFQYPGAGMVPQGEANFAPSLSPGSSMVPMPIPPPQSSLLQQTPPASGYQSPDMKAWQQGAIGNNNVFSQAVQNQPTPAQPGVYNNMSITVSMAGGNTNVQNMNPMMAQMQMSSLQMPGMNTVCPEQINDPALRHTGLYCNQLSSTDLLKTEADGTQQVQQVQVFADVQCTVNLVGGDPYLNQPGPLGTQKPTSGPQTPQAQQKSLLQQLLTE

Assay [12] addresses Peroxisome proliferator-activated receptor gamma/Nuclear receptor coactivator 3 (Homo sapiens, UniProt P37231). Description: TR-FRET dose response biochemical High Throughput Screening assay for agonists of the steroid receptor coactivator 3 (SRC-3) recruitment by the peroxisome proliferator-activated receptor gamma (PPAR gamma): non-selective agonists. [Related pubchem assays: 1301 (Confirmation screen.), 1048 (Primary screen.)]. The assay is classed as functional.

In assay [13] the target is Peroxisome proliferator-activated receptor gamma/Nuclear receptor coactivator 2 (Homo sapiens, UniProt P37231). Description: TR-FRET dose response biochemical High Throughput Screening assay for agonists of the steroid receptor coactivator 2 (SRC-2) recruitment by the peroxisome proliferator-activated receptor gamma (PPAR gamma): non-selective agonists. [Related pubchem assays: 1297, 1032 ]. The assay is classed as functional.

Activity calls are given as the source filed them.

For orientation: IC50 means the concentration that gives 50% inhibition. In general, AC50 refers to the midpoint of the concentration-response curve, whichever way the signal moves. A word on the EC50: it is the concentration needed to bring the measured effect to its halfway point.

Chain of Disintegrin and metalloproteinase domain-containing protein 17 (P78536 whole entry, the tested form may be a part): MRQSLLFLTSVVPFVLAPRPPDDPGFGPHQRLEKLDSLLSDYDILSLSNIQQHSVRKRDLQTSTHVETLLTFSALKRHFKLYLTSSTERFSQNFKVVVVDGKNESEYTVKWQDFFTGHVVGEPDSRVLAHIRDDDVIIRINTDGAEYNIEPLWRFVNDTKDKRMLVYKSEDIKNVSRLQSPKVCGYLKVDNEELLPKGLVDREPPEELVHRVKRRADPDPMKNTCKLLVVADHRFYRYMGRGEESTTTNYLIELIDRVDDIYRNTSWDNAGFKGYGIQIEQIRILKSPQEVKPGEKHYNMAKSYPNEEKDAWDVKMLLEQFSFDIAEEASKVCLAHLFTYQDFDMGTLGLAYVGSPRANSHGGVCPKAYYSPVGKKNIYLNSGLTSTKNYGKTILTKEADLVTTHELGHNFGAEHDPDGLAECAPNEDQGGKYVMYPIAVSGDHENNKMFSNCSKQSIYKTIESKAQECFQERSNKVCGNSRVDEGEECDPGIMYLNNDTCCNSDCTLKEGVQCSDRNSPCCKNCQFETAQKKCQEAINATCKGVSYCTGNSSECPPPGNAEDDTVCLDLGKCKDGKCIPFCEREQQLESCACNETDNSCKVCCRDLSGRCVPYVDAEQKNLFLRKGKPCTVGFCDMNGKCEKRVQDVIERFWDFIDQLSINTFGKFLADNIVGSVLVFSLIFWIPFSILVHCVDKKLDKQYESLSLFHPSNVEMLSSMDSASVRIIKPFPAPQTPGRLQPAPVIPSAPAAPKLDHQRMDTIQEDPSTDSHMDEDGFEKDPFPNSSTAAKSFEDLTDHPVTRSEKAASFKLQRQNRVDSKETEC

For `C=CCC[C@@H](Cc1ccc(F)cc1)C(=O)OC[C@@H](Cc1c[nH]c2ccccc12)NC(=O)[C@H](CC=C)CC(=O)N(CCO)Cc1ccccc1`, the IC50 is > 69.5 µM (inactive) in [1] and 15.4 µM (inactive) in [2]. In addition, the concentration at half-maximal activity (AC50) at Paired box protein Pax-8 is 10.9 µM (active).
As to `CCN(C(=O)COC(=O)c1ccc(C=O)cc1)c1c(N)n(Cc2ccccc2)c(=O)[nH]c1=O`, the IC50 in assay [3] and in [4] was > 122 µM (inactive) throughout.
Take `NS(=O)(=O)c1ccc(N/N=C/c2ccc(O)cc2O)c([N+](=O)[O-])c1`: the IC50 in [3] and in assay [4] was > 123 µM (inactive) each time.
In the case of `CCOc1ccc(C(Nc2cccnc2)c2cc(Cl)c3cccnc3c2O)cc1` (stereo unspecified), the EC50 in [5] was 7.98 µM (inconclusive); in assay [6], > 120 µM (not active); in assay [7], 13.7 µM (active); in assay [8], 0.348 µM (active); in assay [9], 12.1 µM (active). Also, the half-inhibitory concentration (IC50) is 9.11 µM (active) in [1] and 5.53 µM (active) in [2]. The results for the concentration at half-maximal activity (AC50) (in the assay on INS1; in [10]) were 3.6 µM (active) and 2.68 µM (active), respectively.
With `COc1ccc(NC(C)C(=O)N/N=C/c2ccccc2OCc2cccc(Br)c2)cc1` (stereo unspecified), the IC50 in [1] and in assay [2] was > 69.5 µM (inactive) throughout. The EC50 in assay [11] is > 79.4 µM (inactive); in [12] it was > 79.4 µM (not active); in [13] it was > 79.4 µM (not active).
